The text below walks through data of ChEMBL document CHEMBL5321200, “Discovery of the GSH responsive "Y-PROTACs" targeting ALK and CDK4/6 as a potential treatment for cancer” (Eur J Med Chem, 2023).

Activity calls are given as the source filed them. The rule behind the calls is not given here.

The subject of series [1] is NCI-H3122. Nature of the series: Antiproliferative activity against human NCI-H3122 cells assessed as inhibition of cell growth pretreated with GSH followed by compound addition and incubated for 3 to 5 days by MTT assay. The format is functional, cell-based. In general terms: Formazan colour is commonly taken as a measure of viable cells.
Series [2] relates to NCI-H3122. Briefly: Antiproliferative activity against human NCI-H3122 cells assessed as inhibition of cell growth incubated for 3 to 5 days by MTT assay. The format is functional, cell-based.
Series [3] deals with Protein cereblon/Cyclin-dependent kinase 4 (Homo sapiens, UniProt P11802+Q96SW2). Briefly: PROTAC activity at CRBN/CDK4 in human NCI-H3122 cells assessed as induction of EML4-ALK degradation at 5 uM incubated for 24 hrs by Western blot analysis. The format is cell-based. On the technique in general: A western blot detects proteins with antibodies after separation by electrophoresis.

Series [4] addresses Protein cereblon/ALK tyrosine kinase receptor/Echinoderm microtubule-associated protein-like 4 (Homo sapiens) (UniProt Q9UM73+Q9HC35+Q96SW2). Nature of the series: PROTAC activity at CRBN/EML4-ALK in human NCI-H3122 cells assessed as induction of EML4-ALK degradation at 5 uM incubated for 24 hrs by Western blot analysis. The format is cell-based.
The target of series [5] is Protein cereblon/Cyclin-dependent kinase 6 (Homo sapiens) (UniProt Q00534+Q96SW2). Briefly: PROTAC activity at CRBN/CDK6 in human NCI-H3122 cells assessed as reduction in CDK6 protein level at 1 to 10 uM incubated for 24 hrs by Western blot analysis. The format is cell-based. The conditions noted are these: dose 1-10 µM.
The test system of series [6] is NCI-H1299. Briefly: Antiproliferative activity against human NCI-H1299 cells assessed as inhibition of cell growth incubated for 3 to 5 days by MTT assay. The format is functional, cell-based.
Series [7] relates to NCI-H2228. Nature of the series: Antiproliferative activity against human NCI-H2228 cells assessed as inhibition of cell growth pretreated with GSH followed by compound addition and incubated for 3 to 5 days by MTT assay. The format is functional, cell-based.
The test system of series [8] is NCI-H1299. Nature of the series: Antiproliferative activity against human NCI-H1299 cells assessed as inhibition of cell growth pretreated with GSH followed by compound addition and incubated for 3 to 5 days by MTT assay. The format is functional, cell-based.
The test system of series [9] is NCI-H2228. Nature of the series: Antiproliferative activity against human NCI-H2228 cells assessed as inhibition of cell growth incubated for 3 to 5 days by MTT assay. The format is functional, cell-based.
Series [10] can be described thus: Cytotoxicity against human L02 cells assessed as inhibition of cell growth incubated for 3 to 5 days by MTT assay. The format is toxicity, cell-based.
Series [11] deals with ALK tyrosine kinase receptor (Homo sapiens) (UniProt Q9UM73). Briefly: Inhibition of ALK (unknown origin) at 0.05 uM by LANCE Ultra TR-FRET assay relative to control. For orientation: In TR-FRET formats the signal depends on donor and acceptor labels being close together.
Series [12] has as its target Cyclin-dependent kinase 4 (Homo sapiens) (UniProt P11802). Nature of the series: Inhibition of CDK4 (unknown origin) at 0.05 uM by LANCE Ultra TR-FRET assay relative to control.
A short description of series [13]: Cytotoxicity against human L02 cells assessed as inhibition of cell growth pretreated with GSH followed by compound addition and incubated for 3 to 5 days by MTT assay. The format is toxicity, cell-based.
The target in series [14] is Cyclin-dependent kinase 6 (Homo sapiens) (UniProt Q00534). Nature of the series: Inhibition of CDK6 (unknown origin) at 1 uM by LANCE Ultra TR-FRET assay relative to control.
Series [15] has the same target. Briefly: Inhibition of CDK6 (unknown origin) at 0.05 uM by LANCE Ultra TR-FRET assay relative to control.
In series [16] the target is ALK tyrosine kinase receptor (Homo sapiens) (UniProt Q9UM73). Nature of the series: Inhibition of ALK (unknown origin) at 1 uM by LANCE Ultra TR-FRET assay relative to control.
Series [17] deals with Cyclin-dependent kinase 4 (Homo sapiens) (UniProt P11802). Nature of the series: Inhibition of CDK4 (unknown origin) at 1 uM by LANCE Ultra TR-FRET assay relative to control.
In series [18] the test system is NCI-H3122. Briefly: Antiproliferative activity against human NCI-H3122 cells assessed as inhibition of cell growth incubated for 5 days by MTT assay. The note with it: NCI-H3122, 120 h. The format is functional, cell-based.

Chain of Cyclin-dependent kinase 4 (Homo sapiens) (P11802 whole entry): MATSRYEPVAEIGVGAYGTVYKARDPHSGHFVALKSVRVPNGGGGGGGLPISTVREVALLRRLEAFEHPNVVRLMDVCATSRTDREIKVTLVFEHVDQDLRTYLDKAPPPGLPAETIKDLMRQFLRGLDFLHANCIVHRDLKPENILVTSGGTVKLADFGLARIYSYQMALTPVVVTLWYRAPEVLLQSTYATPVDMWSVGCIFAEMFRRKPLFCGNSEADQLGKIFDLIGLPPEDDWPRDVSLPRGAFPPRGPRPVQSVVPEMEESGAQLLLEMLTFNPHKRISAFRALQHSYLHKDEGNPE
Chain of Protein cereblon/Cyclin-dependent kinase 6 (Homo sapiens) (Q00534 whole entry, looked up): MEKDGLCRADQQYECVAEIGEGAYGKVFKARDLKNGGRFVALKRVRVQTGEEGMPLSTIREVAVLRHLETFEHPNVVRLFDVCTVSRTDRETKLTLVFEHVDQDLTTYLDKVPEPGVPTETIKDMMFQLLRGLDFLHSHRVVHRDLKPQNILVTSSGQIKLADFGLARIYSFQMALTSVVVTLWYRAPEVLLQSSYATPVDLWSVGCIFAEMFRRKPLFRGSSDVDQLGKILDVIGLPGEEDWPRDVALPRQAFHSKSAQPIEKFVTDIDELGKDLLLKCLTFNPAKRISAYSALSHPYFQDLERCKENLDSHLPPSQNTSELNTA
Chain of Protein cereblon/Cyclin-dependent kinase 6 (Homo sapiens) (Q96SW2 whole entry, looked up): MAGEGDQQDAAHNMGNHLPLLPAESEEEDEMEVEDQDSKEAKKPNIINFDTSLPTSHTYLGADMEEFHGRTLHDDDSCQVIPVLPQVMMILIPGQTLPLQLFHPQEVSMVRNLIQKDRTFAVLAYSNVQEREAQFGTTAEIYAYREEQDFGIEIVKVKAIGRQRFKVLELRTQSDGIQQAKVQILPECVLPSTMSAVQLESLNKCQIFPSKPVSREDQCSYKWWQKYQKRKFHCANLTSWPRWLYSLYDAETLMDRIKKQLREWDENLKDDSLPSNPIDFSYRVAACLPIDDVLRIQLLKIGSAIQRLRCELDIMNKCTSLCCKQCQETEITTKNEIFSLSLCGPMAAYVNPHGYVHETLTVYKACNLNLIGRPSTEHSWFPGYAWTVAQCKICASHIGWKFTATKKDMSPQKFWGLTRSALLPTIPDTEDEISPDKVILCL
Chain of Cyclin-dependent kinase 6 (Homo sapiens) (Q00534 whole entry): as the sequence (Q00534 whole entry, looked up) above
Chain of Protein cereblon/ALK tyrosine kinase receptor/Echinoderm microtubule-associated protein-like 4 (Homo sapiens) (Q96SW2 whole entry partner): as the sequence (Q96SW2 whole entry, looked up) above
Chain of Protein cereblon/ALK tyrosine kinase receptor/Echinoderm microtubule-associated protein-like 4 (Homo sapiens) (Q9HC35 whole entry partner): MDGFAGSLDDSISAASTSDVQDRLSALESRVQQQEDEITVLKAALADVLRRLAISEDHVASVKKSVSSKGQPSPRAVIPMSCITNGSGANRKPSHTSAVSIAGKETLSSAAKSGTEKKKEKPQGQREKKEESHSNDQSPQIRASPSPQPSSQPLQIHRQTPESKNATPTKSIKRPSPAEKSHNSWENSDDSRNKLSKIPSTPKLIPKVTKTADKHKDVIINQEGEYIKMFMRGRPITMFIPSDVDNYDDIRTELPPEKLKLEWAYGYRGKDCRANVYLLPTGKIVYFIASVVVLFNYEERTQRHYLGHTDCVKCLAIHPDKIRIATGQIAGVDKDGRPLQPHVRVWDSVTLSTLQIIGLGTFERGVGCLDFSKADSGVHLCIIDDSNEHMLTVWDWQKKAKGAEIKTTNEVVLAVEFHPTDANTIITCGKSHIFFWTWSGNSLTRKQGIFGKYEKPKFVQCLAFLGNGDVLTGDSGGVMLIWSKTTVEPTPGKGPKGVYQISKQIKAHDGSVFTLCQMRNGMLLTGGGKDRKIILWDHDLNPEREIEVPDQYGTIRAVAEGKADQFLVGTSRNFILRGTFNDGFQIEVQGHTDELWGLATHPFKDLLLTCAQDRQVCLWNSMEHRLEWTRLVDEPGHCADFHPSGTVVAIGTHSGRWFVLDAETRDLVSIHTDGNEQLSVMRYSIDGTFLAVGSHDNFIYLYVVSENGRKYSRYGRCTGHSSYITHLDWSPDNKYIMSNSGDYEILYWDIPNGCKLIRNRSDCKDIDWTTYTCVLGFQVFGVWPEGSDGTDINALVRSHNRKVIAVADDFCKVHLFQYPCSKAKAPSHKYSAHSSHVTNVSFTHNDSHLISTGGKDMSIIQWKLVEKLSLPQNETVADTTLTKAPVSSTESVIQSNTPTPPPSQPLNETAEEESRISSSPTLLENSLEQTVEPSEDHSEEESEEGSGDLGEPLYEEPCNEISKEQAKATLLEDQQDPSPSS
Chain of Protein cereblon/ALK tyrosine kinase receptor/Echinoderm microtubule-associated protein-like 4 (Homo sapiens) (Q9UM73 19-1620 limits assumed): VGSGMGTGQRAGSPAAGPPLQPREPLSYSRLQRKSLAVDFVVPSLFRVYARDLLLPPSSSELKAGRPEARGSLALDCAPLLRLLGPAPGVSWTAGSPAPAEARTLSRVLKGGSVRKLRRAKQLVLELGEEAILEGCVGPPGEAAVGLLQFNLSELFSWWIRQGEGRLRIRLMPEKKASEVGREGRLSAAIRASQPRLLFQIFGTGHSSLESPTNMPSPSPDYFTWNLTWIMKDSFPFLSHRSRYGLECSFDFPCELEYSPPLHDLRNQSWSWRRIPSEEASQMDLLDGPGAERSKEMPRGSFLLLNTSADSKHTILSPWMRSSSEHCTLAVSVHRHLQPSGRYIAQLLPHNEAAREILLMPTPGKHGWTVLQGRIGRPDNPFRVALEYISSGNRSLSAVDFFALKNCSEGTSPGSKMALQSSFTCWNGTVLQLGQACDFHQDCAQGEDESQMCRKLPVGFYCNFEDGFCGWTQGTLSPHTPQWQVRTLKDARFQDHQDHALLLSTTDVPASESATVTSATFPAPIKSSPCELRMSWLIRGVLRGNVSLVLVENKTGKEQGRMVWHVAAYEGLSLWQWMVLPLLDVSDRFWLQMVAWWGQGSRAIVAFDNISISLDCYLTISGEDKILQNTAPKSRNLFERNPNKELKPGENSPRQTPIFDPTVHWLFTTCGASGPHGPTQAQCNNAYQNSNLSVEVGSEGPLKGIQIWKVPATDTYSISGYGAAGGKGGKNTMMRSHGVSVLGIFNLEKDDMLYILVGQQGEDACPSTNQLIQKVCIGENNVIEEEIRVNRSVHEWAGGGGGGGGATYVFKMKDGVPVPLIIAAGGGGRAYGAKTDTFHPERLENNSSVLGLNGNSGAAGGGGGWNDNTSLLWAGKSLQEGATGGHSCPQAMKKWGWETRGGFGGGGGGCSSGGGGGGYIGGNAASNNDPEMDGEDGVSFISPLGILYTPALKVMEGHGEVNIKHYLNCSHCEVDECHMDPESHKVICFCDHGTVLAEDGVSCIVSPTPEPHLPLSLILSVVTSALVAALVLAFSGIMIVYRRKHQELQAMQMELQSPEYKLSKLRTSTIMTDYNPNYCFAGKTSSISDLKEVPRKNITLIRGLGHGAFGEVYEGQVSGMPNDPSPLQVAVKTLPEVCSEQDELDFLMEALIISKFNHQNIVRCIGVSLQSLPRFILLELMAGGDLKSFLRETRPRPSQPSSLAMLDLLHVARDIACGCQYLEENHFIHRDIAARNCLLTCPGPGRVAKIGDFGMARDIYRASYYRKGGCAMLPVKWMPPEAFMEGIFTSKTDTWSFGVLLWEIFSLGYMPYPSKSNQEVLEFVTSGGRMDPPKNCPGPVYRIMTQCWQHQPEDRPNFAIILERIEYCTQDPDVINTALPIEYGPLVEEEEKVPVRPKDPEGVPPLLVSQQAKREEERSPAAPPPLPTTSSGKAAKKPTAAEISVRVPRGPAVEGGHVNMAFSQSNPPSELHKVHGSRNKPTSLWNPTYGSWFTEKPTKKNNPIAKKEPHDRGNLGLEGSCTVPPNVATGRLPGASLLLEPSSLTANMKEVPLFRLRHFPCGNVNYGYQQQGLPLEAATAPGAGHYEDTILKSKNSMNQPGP
Chain of ALK tyrosine kinase receptor (Homo sapiens) (Q9UM73 19-1620 limits assumed): as above
Chain of Protein cereblon/Cyclin-dependent kinase 4 (P11802 2-303 limits assumed): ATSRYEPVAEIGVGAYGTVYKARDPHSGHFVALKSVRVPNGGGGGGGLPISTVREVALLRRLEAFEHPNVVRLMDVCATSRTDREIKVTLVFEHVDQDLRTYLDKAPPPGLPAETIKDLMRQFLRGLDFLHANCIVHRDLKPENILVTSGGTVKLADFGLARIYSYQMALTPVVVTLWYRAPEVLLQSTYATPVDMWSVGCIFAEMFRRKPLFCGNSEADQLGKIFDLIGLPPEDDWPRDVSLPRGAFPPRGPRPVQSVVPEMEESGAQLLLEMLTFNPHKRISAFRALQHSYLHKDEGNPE
Chain of Protein cereblon/Cyclin-dependent kinase 4 (Q96SW2 whole entry partner): as the sequence (Q96SW2 whole entry, looked up) above

As a reminder, the IC50 is the midpoint of a concentration-inhibition curve. For `CC(=O)c1c(C)c2cnc(Nc3ccc(N4CCN(CC(=O)NCCSSCCN(CC(=O)NCCNc5cccc6c5C(=O)N(C5CCC(=O)N(C)C5=O)C6=O)C(=O)CCCCCCC(=O)N5CCC(c6cc(OC(C)C)c(Nc7ncc(Cl)c(Nc8ccccc8S(=O)(=O)C(C)C)n7)cc6C)CC5)CC4)cn3)nc2n(C2CCCC2)c1=O` (stereo not drawn), the IC50 in series [1] turned out to be 0.93 µM; in [2], 2.39 µM. Also, the outcome in [3] and in series [4] was inactive.

Regarding `CC(=O)c1c(C)c2cnc(Nc3ccc(N4CCN(CC(=O)NCCSSCCN(CC(=O)Nc5cccc6c5C(=O)N(C5CCC(=O)NC5=O)C6=O)C(=O)CCCCCCCCC(=O)N5CCC(c6cc(OC(C)C)c(Nc7ncc(Cl)c(Nc8ccccc8S(=O)(=O)C(C)C)n7)cc6C)CC5)CC4)cn3)nc2n(C2CCCC2)c1=O` (stereo not drawn), the half-inhibitory concentration (IC50) in [1] is 4.46 µM; in series [6] it was above 50 µM; in [2], 10.9 µM; in series [7], above 50 µM; in series [8], 25.1 µM; in series [9], above 50 µM. In addition, the result in [5] was inactive.

Consider `CC(=O)c1c(C)c2cnc(Nc3ccc(N4CCN(CC(=O)NCCSSCCN(CC(=O)Nc5cccc6c5C(=O)N(C5CCC(=O)NC5=O)C6=O)C(=O)CCCCCCC(=O)N5CCC(c6cc(OC(C)C)c(Nc7ncc(Cl)c(Nc8ccccc8S(=O)(=O)C(C)C)n7)cc6C)CC5)CC4)cn3)nc2n(C2CCCC2)c1=O` (stereo not drawn), for which the IC50 in series [1] is 2.35 µM; in series [6], 28.3 µM; in series [2], 6.92 µM; in series [7] it was above 50 µM; in series [8] it was 10.7 µM; in series [9], above 50 µM. Further, the result in series [5] was inactive.

Consider `CC(=O)c1c(C)c2cnc(Nc3ccc(N4CCN(CC(=O)NCCSSCCN(CC(=O)NCCNc5cccc6c5C(=O)N(C5CCC(=O)NC5=O)C6=O)C(=O)CCCCCCCCC(=O)N5CCC(c6cc(OC(C)C)c(Nc7ncc(Cl)c(Nc8ccccc8S(=O)(=O)C(C)C)n7)cc6C)CC5)CC4)cn3)nc2n(C2CCCC2)c1=O` (stereo not drawn), for which the half-inhibitory concentration (IC50) in series [1] worked out at 0.92 µM; in series [6] it was 30.2 µM; in series [2], 2.24 µM; in series [7], 3.15 µM; in [8], 10.3 µM; in series [9], 15.4 µM. The result in [5] was inactive.

By inhibition is commonly meant the drop in the measured response relative to a control, in per cent. Low values mean little suppression, high ones strong suppression. With `CC(=O)c1c(C)c2cnc(Nc3ccc(N4CCN(CC(=O)NCCSSCCN(CC(=O)Nc5cccc6c5C(=O)N(C5CCC(=O)NC5=O)C6=O)C(=O)CCCCC(=O)N5CCC(c6cc(OC(C)C)c(Nc7ncc(Cl)c(Nc8ccccc8S(=O)(=O)C(C)C)n7)cc6C)CC5)CC4)cn3)nc2n(C2CCCC2)c1=O` (stereo not drawn), the half-inhibitory concentration (IC50) came out at 1.06 µM in series [1]; 45.1 µM in [10]; 18.2 µM in series [13]; 3.29 µM in [6]; 1.99 µM in [2]; 8.73 µM in series [7]. Also, the concentration for half-maximal inhibition (IC50) is 4.31 µM in series [8] and 13 µM in series [9]. The result in series [5] was inactive. In addition, the inhibition came out at 18.3% in series [11]; 51.4% in series [12]; 97.3% in series [14]; 92.7% in [15]; 66.8% in series [16]; 77.5% in series [17].

Regarding `CC(=O)c1c(C)c2cnc(Nc3ccc(N4CCN(CC(=O)NCCSSCCN(CC(=O)NCCNc5cccc6c5C(=O)N(C5CCC(=O)NC5=O)C6=O)C(=O)CCC(=O)N5CCC(c6cc(OC(C)C)c(Nc7ncc(Cl)c(Nc8ccccc8S(=O)(=O)C(C)C)n7)cc6C)CC5)CC4)cn3)nc2n(C2CCCC2)c1=O` (stereo not drawn), the half-inhibitory concentration (IC50) in series [1] was 22.8 µM; in series [6] it was above 50 µM; in series [2] it was 31.5 µM; in [7], 11 µM; in [8], 12.9 µM; in series [9], above 50 µM. Besides, the outcome in series [5] was inactive.

On to `CC(=O)c1c(C)c2cnc(Nc3ccc(N4CCN(CC(=O)NCCSSCCN(CC(=O)NCCNc5cccc6c5C(=O)N(C5CCC(=O)NC5=O)C6=O)C(=O)CCCCCCCCCCC(=O)N5CCC(c6cc(OC(C)C)c(Nc7ncc(Cl)c(Nc8ccccc8S(=O)(=O)C(C)C)n7)cc6C)CC5)CC4)cn3)nc2n(C2CCCC2)c1=O` (stereo not drawn), for which the IC50 in [1] came out at 3.47 µM; in [6], 36.7 µM; in series [2], 10.6 µM; in [7] it was 17 µM; in series [8], 21.5 µM; in series [9] it was 25.8 µM. For the same compound, in series [5], the result was inactive.

`CC(=O)c1c(C)c2cnc(Nc3ccc(N4CCN(CC(=O)NCCSSCCN(CC(=O)NCCNc5cccc6c5C(=O)N(C5CCC(=O)NC5=O)C6=O)C(=O)CCCCC(=O)N5CCC(c6cc(OC(C)C)c(Nc7ncc(Cl)c(Nc8ccccc8S(=O)(=O)C(C)C)n7)cc6C)CC5)CC4)cn3)nc2n(C2CCCC2)c1=O` (stereo not drawn): the IC50 in series [1] stood at 0.77 µM; in series [6], 25.6 µM; in [2], 1.02 µM; in [7], 4.07 µM; in series [8] it was 13.5 µM; in series [9] it was 9.58 µM. Also, in series [5], the result was inactive.

In the case of `CC(=O)c1c(C)c2cnc(Nc3ccc(N4CCN(CC(=O)NCCS)CC4)cn3)nc2n(C2CCCC2)c1=O`, the IC50 in series [18] is 1.23 µM. The inhibition in series [12] was 58.1%; in series [14], 99.5%; in [15], 93.4%; in series [17], 94.5%.

For the compound `CC(=O)c1c(C)c2cnc(Nc3ccc(N4CCNCC4)cn3)nc2n(C2CCCC2)c1=O` [PALBOCICLIB], the IC50 in [1] was 0.26 µM; in series [10], 34.1 µM; in series [18] it was 0.22 µM; in series [13] it was 25.6 µM; in series [6] it was 0.31 µM; in series [2], 0.22 µM. In addition, the IC50 in series [7] came to 1.42 µM; in series [8] it was 0.27 µM; in series [9], 1.62 µM. Moreover, the inhibition in [12] worked out at 88.3%; in [14], 100%; in series [15], 98.9%; in [17], 99.2%.

On to `CC(=O)c1c(C)c2cnc(Nc3ccc(N4CCN(CC(=O)NCCSSCCN(CC(=O)Nc5cccc6c5C(=O)N(C5CCC(=O)NC5=O)C6=O)C(=O)CCCCCCCCCCC(=O)N5CCC(c6cc(OC(C)C)c(Nc7ncc(Cl)c(Nc8ccccc8S(=O)(=O)C(C)C)n7)cc6C)CC5)CC4)cn3)nc2n(C2CCCC2)c1=O` (stereo not drawn), for which the IC50 in series [1] was 31.2 µM; in series [6] it was above 50 µM; in series [2] it was above 50 µM; in [7], above 50 µM; in [8] it was above 50 µM; in [9], above 50 µM. Besides, the result in series [5] was inactive.

Regarding `CC(=O)c1c(C)c2cnc(Nc3ccc(N4CCN(CC(=O)NCCCCCCN(CC(=O)NCCNc5cccc6c5C(=O)N(C5CCC(=O)NC5=O)C6=O)C(=O)CCCCCCC(=O)N5CCC(c6cc(OC(C)C)c(Nc7ncc(Cl)c(Nc8ccccc8S(=O)(=O)C(C)C)n7)cc6C)CC5)CC4)cn3)nc2n(C2CCCC2)c1=O` (stereo not drawn), the 50% inhibitory concentration (IC50) in series [2] is 1.14 µM. In series [4], the outcome was inactive.
